Source: patent US11767341B2, “Lincosamide antibiotics and uses thereof” (President and Fellows of Harvard College, priority 2017, dated 2023)
Converted amounts (≈) assume the structure as drawn.

Each molecule was assayed on K. pneumoniae ATCC 10031 (assay: MIC determination). Conditions: Klebsiella pneumoniae, ATCC10031.
Assay type: cell-based

**Q.** Which MIC does the source give for CSC1O[C@H]([C@H](NC(=O)[C@H]2NC[C@@H]3CC(NC4CC4)CCO[C@H]32)[C@H](C)Cl)C(O)[C@@H](O)[C@H]1O (stereo partly drawn) [FSA-510011] here?
**A.** > 64 µg/mL

**Q.** For CSC1O[C@H]([C@H](NC(=O)[C@H]2NC[C@@H]3CC(c4ccc(-c5ccccc5)cc4)=CCO[C@H]32)[C@H](C)Cl)C(O)[C@@H](O)[C@H]1O (stereo partly drawn) [FSA-510001], which MIC is on record?
**A.** > 64 µg/mL

Same assay, conditions: Klebsiella pneumoniae, ATCC10031; K. pneumoniae ATCC 10031; read-out: MIC

**Q.** For CSC1O[C@H]([C@H](NC(=O)[C@H]2NC[C@@H]3C=C(C#Cc4cccc(F)c4)CCO[C@@H]23)[C@H](C)Cl)C(O)[C@@H](O)[C@H]1O (stereo partly drawn) [FSA-510003], which MIC is on record?
**A.** 16 µg/mL (≈ 28.8 µM)

Each molecule was assayed on E. coli ATCC 25922 (assay: MIC determination). Conditions: Escherichia coli, ATCC25922.
Assay type: cell-based

**Q.** Which MIC does the source give for CSC1O[C@H]([C@H](NC(=O)[C@H]2NC[C@@H]3C=C(C#Cc4cccc(F)c4)CCO[C@@H]23)[C@H](C)Cl)C(O)[C@@H](O)[C@H]1O (stereo partly drawn) [FSA-510003] here?
**A.** > 64 µg/mL

**Q.** For CSC1O[C@H]([C@H](NC(=O)[C@H]2NC[C@@H]3CC(NC4CC4)CCO[C@H]32)[C@H](C)Cl)C(O)[C@@H](O)[C@H]1O (stereo partly drawn) [FSA-510011], which MIC is on record?
**A.** > 64 µg/mL

**Q.** CSC1O[C@H]([C@H](NC(=O)[C@H]2NC[C@@H]3CC(c4ccc(-c5ccccc5)cc4)=CCO[C@H]32)[C@H](C)Cl)C(O)[C@@H](O)[C@H]1O (stereo partly drawn) [FSA-510001] was tested. Which MIC did it give?
**A.** > 64 µg/mL

The molecules below were run on S. aureus ATCC 29213 (assay: MIC determination). Conditions: Staphylococcus aureus, ATCC29213, S. aureus ATCC 29213; read-out: MIC.
Assay type: cell-based

**Q.** Which MIC does the source give for CSC1O[C@H]([C@H](NC(=O)[C@H]2NC[C@@H]3C=C(C#Cc4cccc(F)c4)CCO[C@@H]23)[C@H](C)Cl)C(O)[C@@H](O)[C@H]1O (stereo partly drawn) [FSA-510003] here?
**A.** 0.5 µg/mL (≈ 0.901 µM)

**Q.** With CSC1O[C@H]([C@H](NC(=O)[C@H]2NC[C@@H]3CC(NC4CC4)CCO[C@H]32)[C@H](C)Cl)C(O)[C@@H](O)[C@H]1O (stereo partly drawn) [FSA-510011] as the molecule, how does the MIC read?
**A.** 32 µg/mL (≈ 64.8 µM)

**Q.** For CSC1O[C@H]([C@H](NC(=O)[C@H]2NC[C@@H]3CC(c4ccc(-c5ccccc5)cc4)=CCO[C@H]32)[C@H](C)Cl)C(O)[C@@H](O)[C@H]1O (stereo partly drawn) [FSA-510001], which MIC is on record?
**A.** 2 µg/mL (≈ 3.39 µM)

What follows are molecules tested on S. pneumoniae ATCC 49619 (assay: MIC determination). Conditions: Streptococcus pneumoniae, ATCC49619; S. pneumoniae ATCC 49619; read-out: MIC.
Assay type: cell-based

**Q.** Which MIC does the source give for CSC1O[C@H]([C@H](NC(=O)[C@H]2NC[C@@H]3C=C(C#Cc4cccc(F)c4)CCO[C@@H]23)[C@H](C)Cl)C(O)[C@@H](O)[C@H]1O (stereo partly drawn) [FSA-510003] here?
**A.** 0.25 µg/mL (≈ 0.45 µM)

**Q.** How did the MIC turn out when CSC1O[C@H]([C@H](NC(=O)[C@H]2NC[C@@H]3CC(NC4CC4)CCO[C@H]32)[C@H](C)Cl)C(O)[C@@H](O)[C@H]1O (stereo partly drawn) [FSA-510011] was run?
**A.** 8 µg/mL (≈ 16.2 µM)

**Q.** For CSC1O[C@H]([C@H](NC(=O)[C@H]2NC[C@@H]3CC(c4ccc(-c5ccccc5)cc4)=CCO[C@H]32)[C@H](C)Cl)C(O)[C@@H](O)[C@H]1O (stereo partly drawn) [FSA-510001], which MIC is on record?
**A.** 4 µg/mL (≈ 6.79 µM)

These molecules were tested on E. coli MP-74 LptD mutant (assay: MIC determination). Conditions: Escherichia coli.
Assay type: cell-based

**Q.** Which MIC does the source give for CSC1O[C@H]([C@H](NC(=O)[C@H]2NC[C@@H]3C=C(C#Cc4cccc(F)c4)CCO[C@@H]23)[C@H](C)Cl)C(O)[C@@H](O)[C@H]1O (stereo partly drawn) [FSA-510003] here?
**A.** 32 µg/mL (≈ 57.7 µM)

**Q.** For CSC1O[C@H]([C@H](NC(=O)[C@H]2NC[C@@H]3CC(NC4CC4)CCO[C@H]32)[C@H](C)Cl)C(O)[C@@H](O)[C@H]1O (stereo partly drawn) [FSA-510011], which MIC is on record?
**A.** > 64 µg/mL

**Q.** Which MIC does the source give for CSC1O[C@H]([C@H](NC(=O)[C@H]2NC[C@@H]3CC(c4ccc(-c5ccccc5)cc4)=CCO[C@H]32)[C@H](C)Cl)C(O)[C@@H](O)[C@H]1O (stereo partly drawn) [FSA-510001] here?
**A.** 8 µg/mL (≈ 13.6 µM)

These molecules were tested on H. influenzae ATCC 49247 (assay: MIC determination). Conditions: Haemophilus influenzae, ATCC49247.
Assay type: cell-based

**Q.** With CSC1O[C@H]([C@H](NC(=O)[C@H]2NC[C@@H]3CC(NC4CC4)CCO[C@H]32)[C@H](C)Cl)C(O)[C@@H](O)[C@H]1O (stereo partly drawn) [FSA-510011] as the molecule, how does the MIC read?
**A.** > 64 µg/mL

Same assay, conditions: Haemophilus influenzae, ATCC49247; H. influenzae ATCC 49247; read-out: MIC

**Q.** How did the MIC turn out when CSC1O[C@H]([C@H](NC(=O)[C@H]2NC[C@@H]3C=C(C#Cc4cccc(F)c4)CCO[C@@H]23)[C@H](C)Cl)C(O)[C@@H](O)[C@H]1O (stereo partly drawn) [FSA-510003] was run?
**A.** 16 µg/mL (≈ 28.8 µM)

**Q.** For CSC1O[C@H]([C@H](NC(=O)[C@H]2NC[C@@H]3CC(c4ccc(-c5ccccc5)cc4)=CCO[C@H]32)[C@H](C)Cl)C(O)[C@@H](O)[C@H]1O (stereo partly drawn) [FSA-510001], which MIC is on record?
**A.** 16 µg/mL (≈ 27.2 µM)

The molecules below were run on E. faecalis ATCC 29212 (assay: MIC determination). Conditions: Enterococcus faecalis, ATCC29212.
Assay type: cell-based

**Q.** How did the MIC turn out when CSC1O[C@H]([C@H](NC(=O)[C@H]2NC[C@@H]3CC(NC4CC4)CCO[C@H]32)[C@H](C)Cl)C(O)[C@@H](O)[C@H]1O (stereo partly drawn) [FSA-510011] was run?
**A.** > 64 µg/mL

**Q.** With CSC1O[C@H]([C@H](NC(=O)[C@H]2NC[C@@H]3CC(c4ccc(-c5ccccc5)cc4)=CCO[C@H]32)[C@H](C)Cl)C(O)[C@@H](O)[C@H]1O (stereo partly drawn) [FSA-510001] as the molecule, how does the MIC read?
**A.** 8 µg/mL (≈ 13.6 µM)

Same assay, conditions: Enterococcus faecalis, ATCC29212, read-out: MIC

**Q.** CSC1O[C@H]([C@H](NC(=O)[C@H]2NC[C@@H]3C=C(C#Cc4cccc(F)c4)CCO[C@@H]23)[C@H](C)Cl)C(O)[C@@H](O)[C@H]1O (stereo partly drawn) [FSA-510003] was tested. Which MIC did it give?
**A.** 1 µg/mL (≈ 1.8 µM)

These molecules were tested on S. pyogenes ATCC 19615 (assay: MIC determination). Conditions: Streptococcus pyogenes, ATCC19615; S. pyogenes ATCC 19615; read-out: MIC.
Assay type: cell-based

**Q.** Which MIC does the source give for CSC1O[C@H]([C@H](NC(=O)[C@H]2NC[C@@H]3C=C(C#Cc4cccc(F)c4)CCO[C@@H]23)[C@H](C)Cl)C(O)[C@@H](O)[C@H]1O (stereo partly drawn) [FSA-510003] here?
**A.** 0.25 µg/mL (≈ 0.45 µM)

**Q.** Which MIC does the source give for CSC1O[C@H]([C@H](NC(=O)[C@H]2NC[C@@H]3CC(NC4CC4)CCO[C@H]32)[C@H](C)Cl)C(O)[C@@H](O)[C@H]1O (stereo partly drawn) [FSA-510011] here?
**A.** 2 µg/mL (≈ 4.05 µM)

**Q.** CSC1O[C@H]([C@H](NC(=O)[C@H]2NC[C@@H]3CC(c4ccc(-c5ccccc5)cc4)=CCO[C@H]32)[C@H](C)Cl)C(O)[C@@H](O)[C@H]1O (stereo partly drawn) [FSA-510001] was tested. Which MIC did it give?
**A.** 2 µg/mL (≈ 3.39 µM)

Each molecule was assayed on S. aureus BAA 977 iErmA (assay: MIC determination). Conditions: Staphylococcus aureus, BAA977.
Assay type: cell-based

**Q.** Which MIC does the source give for CSC1O[C@H]([C@H](NC(=O)[C@H]2NC[C@@H]3C=C(C#Cc4cccc(F)c4)CCO[C@@H]23)[C@H](C)Cl)C(O)[C@@H](O)[C@H]1O (stereo partly drawn) [FSA-510003] here?
**A.** 0.25 µg/mL (≈ 0.45 µM)

**Q.** CSC1O[C@H]([C@H](NC(=O)[C@H]2NC[C@@H]3CC(NC4CC4)CCO[C@H]32)[C@H](C)Cl)C(O)[C@@H](O)[C@H]1O (stereo partly drawn) [FSA-510011] was tested. Which MIC did it give?
**A.** 32 µg/mL (≈ 64.8 µM)

**Q.** CSC1O[C@H]([C@H](NC(=O)[C@H]2NC[C@@H]3CC(c4ccc(-c5ccccc5)cc4)=CCO[C@H]32)[C@H](C)Cl)C(O)[C@@H](O)[C@H]1O (stereo partly drawn) [FSA-510001] was tested. Which MIC did it give?
**A.** 2 µg/mL (≈ 3.39 µM)

Each molecule was assayed on E. coli MP-9 ΔTolC (assay: MIC determination). Conditions: Escherichia coli.
Assay type: cell-based

**Q.** How did the MIC turn out when CSC1O[C@H]([C@H](NC(=O)[C@H]2NC[C@@H]3C=C(C#Cc4cccc(F)c4)CCO[C@@H]23)[C@H](C)Cl)C(O)[C@@H](O)[C@H]1O (stereo partly drawn) [FSA-510003] was run?
**A.** > 64 µg/mL

**Q.** For CSC1O[C@H]([C@H](NC(=O)[C@H]2NC[C@@H]3CC(NC4CC4)CCO[C@H]32)[C@H](C)Cl)C(O)[C@@H](O)[C@H]1O (stereo partly drawn) [FSA-510011], which MIC is on record?
**A.** > 64 µg/mL

**Q.** With CSC1O[C@H]([C@H](NC(=O)[C@H]2NC[C@@H]3CC(c4ccc(-c5ccccc5)cc4)=CCO[C@H]32)[C@H](C)Cl)C(O)[C@@H](O)[C@H]1O (stereo partly drawn) [FSA-510001] as the molecule, how does the MIC read?
**A.** > 64 µg/mL
